Measured values taken from US20170056423A1 (Gilead Sciences, Inc., priority 2012, published 2017).
Like-named read-outs stand apart in the source and are kept apart here.

Tests used:
CYP2B6 = CYP2B6 (Homo sapiens, UniProt P20813); assay: CYP2B6 inhibition; type: in vitro ADME; details: similar potency to ritonavir
CYP2D6 = CYP2D6 (Homo sapiens, UniProt P10635); assay: CYP2D6 inhibition; type: in vitro ADME
CYP1A2 = CYP1A2 (Homo sapiens, UniProt P05177); assay: CYP1A2 inhibition; type: in vitro ADME
CYP1A2, sequence (P05177 whole entry): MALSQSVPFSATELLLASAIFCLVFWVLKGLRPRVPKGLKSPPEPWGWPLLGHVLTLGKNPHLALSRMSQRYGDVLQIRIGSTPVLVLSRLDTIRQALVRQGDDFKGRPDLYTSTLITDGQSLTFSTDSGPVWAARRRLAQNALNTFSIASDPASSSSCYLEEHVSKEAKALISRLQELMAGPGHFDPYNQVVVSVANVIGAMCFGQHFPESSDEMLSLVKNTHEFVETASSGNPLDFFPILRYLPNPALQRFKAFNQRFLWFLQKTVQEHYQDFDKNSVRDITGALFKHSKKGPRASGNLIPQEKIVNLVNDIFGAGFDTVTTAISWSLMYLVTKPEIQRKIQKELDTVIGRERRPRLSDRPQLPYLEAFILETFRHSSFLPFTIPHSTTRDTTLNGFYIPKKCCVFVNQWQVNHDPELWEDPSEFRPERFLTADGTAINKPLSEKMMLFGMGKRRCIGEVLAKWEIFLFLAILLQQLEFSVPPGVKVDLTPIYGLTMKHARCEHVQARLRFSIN

CYP2C8 = CYP2C8 (Homo sapiens, UniProt P10632); assay: CYP2C8 inhibition; type: in vitro ADME
CYP2C8, sequence (P10632 whole entry): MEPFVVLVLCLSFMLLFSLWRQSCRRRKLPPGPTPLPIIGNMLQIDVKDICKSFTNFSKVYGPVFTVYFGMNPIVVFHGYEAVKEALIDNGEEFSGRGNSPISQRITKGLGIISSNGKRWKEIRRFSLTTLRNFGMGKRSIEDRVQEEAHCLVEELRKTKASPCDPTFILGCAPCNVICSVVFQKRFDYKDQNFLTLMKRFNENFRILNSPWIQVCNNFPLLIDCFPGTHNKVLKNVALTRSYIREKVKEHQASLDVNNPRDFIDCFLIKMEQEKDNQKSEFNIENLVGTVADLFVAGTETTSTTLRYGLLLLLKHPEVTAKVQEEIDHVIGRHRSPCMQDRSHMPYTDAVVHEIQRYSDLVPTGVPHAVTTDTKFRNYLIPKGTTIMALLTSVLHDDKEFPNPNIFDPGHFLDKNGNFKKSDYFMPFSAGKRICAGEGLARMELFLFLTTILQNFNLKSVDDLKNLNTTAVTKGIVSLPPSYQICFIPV

CYP2C9 = CYP2C9 (Homo sapiens, UniProt P11712); assay: CYP2C9 inhibition; type: in vitro ADME
CYP2C9, sequence (P11712 whole entry): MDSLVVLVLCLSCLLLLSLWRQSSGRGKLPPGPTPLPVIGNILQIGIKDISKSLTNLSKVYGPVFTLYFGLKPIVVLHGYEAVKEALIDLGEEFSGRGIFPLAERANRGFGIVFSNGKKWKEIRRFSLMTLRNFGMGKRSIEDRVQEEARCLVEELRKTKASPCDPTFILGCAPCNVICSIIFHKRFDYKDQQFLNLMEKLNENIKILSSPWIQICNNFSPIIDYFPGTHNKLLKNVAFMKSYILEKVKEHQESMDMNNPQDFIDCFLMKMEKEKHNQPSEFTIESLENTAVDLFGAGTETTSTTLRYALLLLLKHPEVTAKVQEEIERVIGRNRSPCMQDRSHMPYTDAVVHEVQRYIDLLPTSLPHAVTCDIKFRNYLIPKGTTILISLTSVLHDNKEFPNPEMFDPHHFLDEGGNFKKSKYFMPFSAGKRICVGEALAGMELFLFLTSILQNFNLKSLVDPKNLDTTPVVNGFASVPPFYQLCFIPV

CYP2C19 = CYP2C19 (Homo sapiens, UniProt P33261); assay: CYP2C19 inhibition; type: in vitro ADME
CYP2C19, sequence (P33261 whole entry): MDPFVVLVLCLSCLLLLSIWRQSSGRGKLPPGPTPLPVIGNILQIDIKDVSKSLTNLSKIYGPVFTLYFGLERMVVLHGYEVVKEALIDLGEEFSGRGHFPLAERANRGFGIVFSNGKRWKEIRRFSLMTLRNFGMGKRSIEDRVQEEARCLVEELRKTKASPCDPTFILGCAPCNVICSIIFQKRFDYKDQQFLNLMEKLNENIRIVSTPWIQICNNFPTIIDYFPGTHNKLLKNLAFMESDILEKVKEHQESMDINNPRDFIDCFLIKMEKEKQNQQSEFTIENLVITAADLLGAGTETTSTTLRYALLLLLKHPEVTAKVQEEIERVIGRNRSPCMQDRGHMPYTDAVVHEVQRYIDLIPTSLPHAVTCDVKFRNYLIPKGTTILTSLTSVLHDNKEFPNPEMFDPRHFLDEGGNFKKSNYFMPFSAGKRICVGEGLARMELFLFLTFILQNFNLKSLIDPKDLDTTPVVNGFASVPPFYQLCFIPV

[1] = target: uridine glucuronosyltransferase 1A1 (Homo sapiens, UniProt P22309); assay: UGT1A1 inhibition by cobicistat; type: in vitro ADME
uridine glucuronosyltransferase 1A1, sequence (P22309 26-533): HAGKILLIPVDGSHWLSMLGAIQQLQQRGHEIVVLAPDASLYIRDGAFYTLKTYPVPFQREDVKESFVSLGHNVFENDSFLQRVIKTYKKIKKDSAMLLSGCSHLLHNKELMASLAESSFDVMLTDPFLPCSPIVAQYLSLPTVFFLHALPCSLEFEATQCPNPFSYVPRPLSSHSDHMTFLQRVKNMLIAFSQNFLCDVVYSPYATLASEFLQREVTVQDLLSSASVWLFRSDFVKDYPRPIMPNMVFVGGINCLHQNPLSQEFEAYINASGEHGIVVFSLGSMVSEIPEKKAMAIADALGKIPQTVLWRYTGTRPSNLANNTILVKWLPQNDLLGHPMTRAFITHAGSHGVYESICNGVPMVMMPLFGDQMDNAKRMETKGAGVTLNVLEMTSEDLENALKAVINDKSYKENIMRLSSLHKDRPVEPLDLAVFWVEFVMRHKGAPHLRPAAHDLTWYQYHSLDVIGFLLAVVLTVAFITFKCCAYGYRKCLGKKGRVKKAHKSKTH

[2] = system: cytochrome P450, UGT1A1, or P-glycoprotein; assay: xenobiotic receptor transactivation and human hepatocyte induction studies; type: in vitro ADME; details: at up to 30 μM
[3] = system: transporters including P-glycoprotein, MRP1, and MRP2; assay: permeability assays for transporter interaction; type: in vitro ADME
Pgp = target: T1, Pgp (Homo sapiens, UniProt P08183); assay: Pgp inhibition assay, calcein AM accumulation in MDCKII-MDR1 cells; type: cell-based
T1 construct: expressed in transfected cells; host or cells: MDCKII (Madin-Darby canine kidney) cells, MDCKII-MDR1
Protocol: (§1) Pgp and BCRP inhibition assays in transfected Madin-Darby canine kidney (MDCKII) cells: Inhibition of Pgp-mediated transport was studied using the Pgp substrate calcein AM and MDCKII cells transfected with the human MDR1 (ABCB1) gene (encoding Pgp). Similarly, inhibition of BCRP-mediated transport was studied using the BCRP substrate Hoechst 33342 and MDCKII cells transfected with the human ABCG2 gene (encoding BCRP). Briefly, MDCKII cells were seeded in 96-well black cell culture plates with clear bottoms at a density of 5×10^4 cells/well and grown to confluence overnight. Test compounds were diluted in cell culture medium containing 10 μM Hoechst 33342 and incubated for 3 hours with MDCKII-BCRP and nontransfected cells. Following removal of media containing Hoechst 33342 and test compound, cells were washed twice with warm medium and lysed at room temperature for 5-10 minutes in a buffer containing 20 mM Tris-HCl pH 9.0 and 0.4% Triton X-100. Wells were analyzed for Hoechst 33342 fluorescence at an excitation of 353 nm and an emission of 460 nm. […]

BCRP [4] = target: T2, BCRP (Homo sapiens, UniProt Q9UNQ0); assay: BCRP inhibition assay, Hoechst 33342 accumulation in MDCKII-ABCG2 cells; type: cell-based; details: Hoechst 33342, MDCKII-ABCG2 cells
T2 construct: expressed in transfected cells; host or cells: MDCKII (Madin-Darby canine kidney) cells, MDCKII-ABCG2 / MDCKII-BCRP
T2 sequence (Q9UNQ0 whole entry): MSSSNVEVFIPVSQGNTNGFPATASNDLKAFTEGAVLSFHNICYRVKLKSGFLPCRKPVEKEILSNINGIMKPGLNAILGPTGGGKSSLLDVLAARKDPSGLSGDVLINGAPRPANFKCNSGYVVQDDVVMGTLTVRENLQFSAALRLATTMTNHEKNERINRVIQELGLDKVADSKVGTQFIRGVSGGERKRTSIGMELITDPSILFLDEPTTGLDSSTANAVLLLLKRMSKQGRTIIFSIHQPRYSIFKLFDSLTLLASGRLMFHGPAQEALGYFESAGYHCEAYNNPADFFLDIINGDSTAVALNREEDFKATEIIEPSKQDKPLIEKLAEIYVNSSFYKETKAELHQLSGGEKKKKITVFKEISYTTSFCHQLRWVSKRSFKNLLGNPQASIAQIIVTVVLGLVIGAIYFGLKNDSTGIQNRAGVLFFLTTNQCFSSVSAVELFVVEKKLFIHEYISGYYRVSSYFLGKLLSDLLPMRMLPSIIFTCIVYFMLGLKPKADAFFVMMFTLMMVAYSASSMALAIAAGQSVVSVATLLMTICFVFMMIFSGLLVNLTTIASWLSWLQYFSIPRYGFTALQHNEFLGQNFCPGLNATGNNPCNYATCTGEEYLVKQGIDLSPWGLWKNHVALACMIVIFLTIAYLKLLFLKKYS
Protocol: as §1

[5] = target: T3, Pgp (multidrug resistance protein 1; MDR1) (Homo sapiens, UniProt P08183); assay: Pgp substrate assay, bidirectional permeability in MDCKII-MDR1 cells; type: in vitro ADME; details: 10 μM, MDCKII-MDR1 vs MDCKII-WT, ± CSA
T3 construct: expressed in transfected cells; host or cells: MDCKII (Madin-Darby canine kidney) cells, MDCKII-MDR1
Protocol: (§2) Pgp and BCRP substrate assays in transfected MDCKII cells: MDCKII cells were grown to confluence over 4-6 days on 24-well PET transwell plates (BD Biosciences). The same buffers were used in the donor and receiver wells as described above for caco-2 studies. Experiments were conducted as described above for caco-2 transepithelial transport studies and samples analyzed by LC/MS/MS. Similar quality control and acceptance criteria were used as those described above for caco-2 studies. TEER values and the permeability of lucifer yellow, atenolol, and propranolol were determined to meet acceptance criteria for each batch of assay plates. Efflux ratios were determined to be at least 3-fold higher in transfected versus nontransfected monolayers for the model Pgp substrate vinblastine and BCRP substrate prazosin.
(§3) Data analysis: The 50% inhibition constants (IC50) values for transporters in the fluorescent accumulation studies done in MDCKII cells, defined as the test article concentration needed to inhibit the maximal transporter specific transport by 50%, were calculated using nonlinear curve fitting of inhibition versus concentration to a sigmoidal curve with a variable Hill coefficient using GraphPad Prism 5 (GraphPad Software Inc., San Diego, Calif.). […]

BCRP [6] = target: T2, BCRP; assay: BCRP substrate assay, bidirectional permeability in MDCKII-BCRP cells; type: in vitro ADME; details: 10 μM, MDCKII-BCRP vs MDCKII-WT, ± Ko134
Protocol: as §2, §3

caco-2 cell monolayers = assay: bidirectional permeability of HIV protease inhibitors and GS-7340 through caco-2 monolayers; type: in vitro ADME; details: COBI 90 μM, GS-7340 10 μM, over 2 hours
[7] = 25° C., relative humidity of 90%
Protocol: DVS analysis was conducted using 4.951 mg of tenofovir alafenamide hemifumarate. The material was kept at 25° C. in nitrogen at humidities ranging from 10% to 90% relative humidity: each step was equilibrated for 120 minutes.

[8] = Description: Chemical stability of the hemifumarate form of tenofovir alafenamide was compared with the monofumarate form. […] Conditions evaluated include temperature, relative humidity (RH), and the open or closed state of the container cap.
[9] = for thermodynamic stability in solvents: toluene, MTBE, acetone, THF, 2-methyl THF
[10] = system: UDP-glucuronosyltransferases; assay: UDP-glucuronosyltransferase interaction; type: in vitro ADME, human; details: in vitro or in vivo in humans
cytochrome P450 enzymes = details: in vitro or in vivo in humans
[11] = in vivo
[12] = 40° C./75% RH Cap Closed, 0 weeks
[13] = 40° C./75% RH Cap Closed, 1 week
[14] = 40° C./75% RH Cap Closed, 2 weeks
[15] = 40° C./75% RH Cap Closed, 4 weeks
[16] = 40° C./75% RH Cap Closed, 8 weeks
[17] = 40° C./75% RH Cap Open, 0 weeks
[18] = 40° C./75% RH Cap Open, 2 weeks
[19] = 40° C./75% RH Cap Open, 4 weeks
[20] = 40° C./75% RH Cap Open, 8 weeks

CYP2D6, sequence (P10635 whole entry): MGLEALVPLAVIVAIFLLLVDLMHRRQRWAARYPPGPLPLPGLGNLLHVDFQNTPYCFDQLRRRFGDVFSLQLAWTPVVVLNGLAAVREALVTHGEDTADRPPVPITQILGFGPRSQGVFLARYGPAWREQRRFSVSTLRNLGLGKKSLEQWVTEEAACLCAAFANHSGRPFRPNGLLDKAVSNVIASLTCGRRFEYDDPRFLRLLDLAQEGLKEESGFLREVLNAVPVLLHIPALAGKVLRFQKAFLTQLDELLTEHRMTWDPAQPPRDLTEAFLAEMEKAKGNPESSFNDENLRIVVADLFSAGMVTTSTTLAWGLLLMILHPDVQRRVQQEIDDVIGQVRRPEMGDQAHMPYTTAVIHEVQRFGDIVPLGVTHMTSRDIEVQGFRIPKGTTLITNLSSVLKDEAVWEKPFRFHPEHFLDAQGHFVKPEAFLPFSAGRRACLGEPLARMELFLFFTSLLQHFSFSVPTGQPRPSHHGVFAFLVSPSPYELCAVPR
CYP2B6, sequence (P20813 whole entry): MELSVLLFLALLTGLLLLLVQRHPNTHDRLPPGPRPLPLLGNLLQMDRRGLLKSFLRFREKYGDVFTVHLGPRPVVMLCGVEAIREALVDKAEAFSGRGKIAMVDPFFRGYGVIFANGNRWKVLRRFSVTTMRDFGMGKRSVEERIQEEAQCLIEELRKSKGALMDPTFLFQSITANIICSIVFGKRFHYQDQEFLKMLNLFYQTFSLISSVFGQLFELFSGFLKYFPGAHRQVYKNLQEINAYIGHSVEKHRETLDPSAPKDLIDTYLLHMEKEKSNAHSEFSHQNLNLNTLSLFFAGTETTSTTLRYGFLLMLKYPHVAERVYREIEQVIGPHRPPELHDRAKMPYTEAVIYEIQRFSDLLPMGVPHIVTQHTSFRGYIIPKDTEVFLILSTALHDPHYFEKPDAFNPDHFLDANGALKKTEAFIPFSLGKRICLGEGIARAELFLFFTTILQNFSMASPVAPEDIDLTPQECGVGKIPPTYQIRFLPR

CC(C)c1nc(CN(C)C(=O)N[C@@H](CCN2CCOCC2)C(=O)N[C@H](CC[C@H](Cc2ccccc2)NC(=O)OCc2cncs2)Cc2ccccc2)cs1 [cobicistat, 1,3-thiazol-5-ylmethyl (2R,5R)-(5-{[(2S)-2-[(methyl{[2-(propan-2-yl)-1,3-thiazol-4-yl]methyl}carbamoyl)amino]]-4-(morpholin-4-yl)butanamido}-1,6-diphenylhexan-2-yl)carbamate]
inhibition of CYP2B6 (CYP2B6): moderate inhibitor | inhibition of CYP2D6 (CYP2D6): weak inhibitor | inhibition of CYP1A2 (CYP1A2): does not appreciably inhibit | inhibition of CYP2C8 (CYP2C8): does not appreciably inhibit | inhibition of CYP2C9 (CYP2C9): does not appreciably inhibit | inhibition of CYP2C19 (CYP2C19): does not appreciably inhibit | inhibition of uridine glucuronosyltransferase 1A1 [1]: does not appreciably inhibit | potential as inducer of cytochrome P450, UGT1A1, or P-glycoprotein [2]: no/weak potential as an inducer | substrate or inhibitor of transporters [3]: not a strong substrate or inhibitor | IC50 (Pgp): 36 ± 10 µM | IC50 (BCRP [4]): 59 ± 28 µM | substrate for Pgp [5]: substrate | substrate for BCRP (BCRP [6]): substrate | effect on A-B flux of GS-7340 (caco-2 cell monolayers): increased the A-B flux | effect on B-A flux of GS-7340 (caco-2 cell monolayers): reducing B-A flux

tenofovir alafenamide hemifumarate
water absorbed [7]: 0.65% | % TA Area Normalized [8, 12]: 98.4% | % Total Deg. Products [8, 12]: 0.05% | % TA Area Normalized [8, 13]: 98.4% | % Total Deg. Products [8, 13]: 0.14% | % TA Area Normalized [8, 14]: 98.5% | % Total Deg. Products [8, 14]: 0.14% | % TA Area Normalized [8, 15]: 98.4% | % Total Deg. Products [8, 15]: 0.25% | % TA Area Normalized [8, 16]: 98.0% | % Total Deg. Products [8, 16]: 0.49% | % TA Area Normalized [8, 17]: 98.4% | % Total Deg. Products [8, 17]: 0.05% | % TA Area Normalized ([8]; 40° C./75% RH Cap Open, 1 week): 98.5% | % Total Deg. Products ([8]; 40° C./75% RH Cap Open, 1 week): 0.15% | % TA Area Normalized [8, 18]: 98.5% | % Total Deg. Products [8, 18]: 0.14% | % TA Area Normalized [8, 19]: 98.4% | % Total Deg. Products [8, 19]: 0.26% | % TA Area Normalized [8, 20]: 98.1% | % Total Deg. Products [8, 20]: 0.50% | % TA Area Normalized ([8]; 70° C. Cap Closed, 0 weeks): 98.4% | % Total Deg. Products ([8]; 70° C. Cap Closed, 0 weeks): 0.05% | % TA Area Normalized ([8]; 70° C. Cap Closed, 2 weeks): 98.5% | % Total Deg. Products ([8]; 70° C. Cap Closed, 2 weeks): 0.22% | % TA Area Normalized ([8]; 70° C. Cap Closed, 4 weeks): 98.4% | % Total Deg. Products ([8]; 70° C. Cap Closed, 4 weeks): 0.33% | thermodynamic stability in solvents ([9]; ACN, ethyl acetate): thermodynamically stable in most solvents

tenofovir alafenamide monofumarate [Monofumarate form]
% TA Area Normalized [8, 12]: 97.1% | % Total Deg. Products [8, 12]: 0.69% | % TA Area Normalized [8, 13]: 97.0% | % Total Deg. Products [8, 13]: 0.87% | % TA Area Normalized [8, 14]: 96.6% | % Total Deg. Products [8, 14]: 1.18% | % TA Area Normalized [8, 15]: 96.4% | % Total Deg. Products [8, 15]: 1.49% | % TA Area Normalized [8, 16]: 95.4% | % Total Deg. Products [8, 16]: 2.36% | % TA Area Normalized [8, 17]: 97.1% | % Total Deg. Products [8, 17]: 0.69% | % TA Area Normalized ([8]; 40° C./75% RH Cap Open, 1 week): 96.9% | % Total Deg. Products ([8]; 40° C./75% RH Cap Open, 1 week): 0.90% | % TA Area Normalized [8, 18]: 96.6% | % Total Deg. Products [8, 18]: 1.10% | % TA Area Normalized [8, 19]: 96.2% | % Total Deg. Products [8, 19]: 1.67% | % TA Area Normalized [8, 20]: 95.0% | % Total Deg. Products [8, 20]: 2.74% | % TA Area Normalized ([8]; 70° C. Cap Closed, 0 weeks): 97.1% | % Total Deg. Products ([8]; 70° C. Cap Closed, 0 weeks): 0.69% | % TA Area Normalized ([8]; 70° C. Cap Closed, 2 weeks): 96.2% | % Total Deg. Products ([8]; 70° C. Cap Closed, 2 weeks): 1.83% | % TA Area Normalized ([8]; 70° C. Cap Closed, 4 weeks): 93.3% | % Total Deg. Products ([8]; 70° C. Cap Closed, 4 weeks): 4.78% | form conversion when suspended in solvent ([9]; ACN, ethyl acetate, MTBE, and acetone): partially converts to the hemifumarate form | thermodynamic stability in solvents ([9]; ACN, ethyl acetate): not thermodynamically stable | form conversion when suspended in solvent ([9]; THF and 2-methyl THF): fully converts to the hemifumarate form

C[C@H](Cn1cnc2c(N)ncnc21)OCP(=O)(O)O [tenofovir, 9-R-[(2-phosphonomethoxy)propyl]adenine]
interaction with UDP-glucuronosyltransferases as substrate, inhibitor, or inducer [10]: does not interact significantly | interaction with human cytochrome P450 enzymes as substrate, inhibitor, or inducer (cytochrome P450 enzymes): does not interact significantly | systemic exposure equivalent, fold higher than a dose of tenofovir alone [11]: 3 to 4 fold
